Laboratory results published in US8952024B2, “Herbicidal pyrimidone derivatives” (E I du Pont de Nemours and Company, priority 2009, dated 2015).

Legend:
Format in all cases: in vivo
[1] = tested on: corn (Zea mays); assay: Test A pre-/postemergence plant response; conditions: for Corn plant response rating: visual injury, 0 to 100 scale (0 no effect, 100 complete control), approx. ten days
Procedure, shortened: (§1)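 Greenhouse trial, ~10 days. Soil (loam/sand) sprayed preemergence after seeding; emerged plants (1–2 leaf, 2–10 cm) sprayed postemergence in parallel. Response = visual injury vs untreated control, 0–100.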

[2] = tested on: large crabgrass (Digitaria sanguinalis); assay: Test A pre-/postemergence plant response; conditions: for Crabgrass, Large plant response rating: visual injury, 0 to 100 scale (0 no effect, 100 complete control), approx. ten days
Procedure, shortened: as §1

[3] = tested on: pigweed (Amaranthus retroflexus); assay: Test A pre-/postemergence plant response; conditions: for Pigweed plant response rating: visual injury, 0 to 100 scale (0 no effect, 100 complete control), approx. ten days
Procedure, shortened: as §1

[4] = tested on: giant foxtail (Setaria faberii); assay: Test A pre-/postemergence plant response; conditions: for Foxtail, Giant plant response rating: visual injury, 0 to 100 scale (0 no effect, 100 complete control), approx. ten days
Procedure, shortened: as §1

[5] = tested on: wheat (Triticum aestivum); assay: Test A pre-/postemergence plant response; conditions: for Wheat plant response rating: visual injury, 0 to 100 scale (0 no effect, 100 complete control), approx. ten days
Procedure, shortened: as §1

[6] = tested on: barnyardgrass (Echinochloa crus-galli); assay: Test A pre-/postemergence plant response; conditions: for Barnyardgrass plant response rating: visual injury, 0 to 100 scale (0 no effect, 100 complete control), approx. ten days
Procedure, shortened: as §1

[7] = tested on: velvetleaf (Abutilon theophrasti); assay: Test A pre-/postemergence plant response; conditions: for Velvetleaf plant response rating: visual injury, 0 to 100 scale (0 no effect, 100 complete control), approx. ten days
Procedure, shortened: as §1

[8] = tested on: morningglory (Ipomoea spp.); assay: Test A pre-/postemergence plant response; conditions: for Morningglory plant response rating: visual injury, 0 to 100 scale (0 no effect, 100 complete control), approx. ten days
Procedure, shortened: as §1

[9] = tested on: canarygrass (Phalaris minor); assay: Test B postemergence plant response; conditions: Postemergence
Procedure, shortened: (§2)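 Visual ratings from 0 (no effect) to 100 (complete control), made against controls 13–15 days after treatment, kept in a greenhouse. Compounds were applied postemergence to potted plants at the 1- to 4-leaf stage (2–18 cm).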

[10] = tested on: chickweed (Stellaria media); assay: Test B postemergence plant response; conditions: Postemergence
Procedure, shortened: as §2

[11] = tested on: windgrass (Apera spica-venti); assay: Test B postemergence plant response; conditions: Postemergence
Procedure, shortened: as §2

[12] = tested on: winter barley (Hordeum vulgare); assay: Test B postemergence plant response; conditions: for Barley plant response rating (0 to 100 scale): 62 g ai/ha, postemergence, 0 is no effect, 100 is complete control; for Plant response rating, Barley: Postemergence
Procedure, shortened: as §2

[13] = Postemergence, 125 g ai/ha, 0 to 100 scale where 0 is no effect and 100 is complete control
[14] = Preemergence, 125 g ai/ha, 0 to 100 scale, 0 = no effect, 100 = complete control
[15] = Preemergence, 500 g ai/ha, 0 to 100 scale, 0 = no effect, 100 = complete control
[16] = 31 g ai/ha, 0 to 100 scale (0 no effect, 100 complete control)
[17] = 125 g ai/ha, scale 0 to 100 (0 no effect, 100 complete control)
[18] = 250 g ai/ha, scale 0 to 100 (0 no effect, 100 complete control), 13 to 15 days

Cc1ccc(Cl)cc1-n1c(-c2cccc(F)c2)ncc(C(=O)C2=C(O)CCCC2=O)c1=O [Compound 184]
0: Plant response rating, Corn [1, 14] | Plant response rating, Wheat [5, 13] | Plant response rating, Wheat [5, 14] | Plant response rating, Wheat [5, 15]
70: Plant response rating, Pigweed [3, 14]
90: Plant response rating, Pigweed [3, 15] | Plant response rating, Foxtail, Giant [4, 13] | Plant response rating, Foxtail, Giant [4, 15] | Plant response rating, Barnyardgrass [6, 13] | Plant response rating, Barnyardgrass [6, 15] | Plant response rating, Windgrass [11, 17]
30: Plant response rating, Crabgrass, Large [2, 14] | Plant response rating, Foxtail, Giant [4, 14]
45: Plant response rating, Canarygrass [9, 16]
80: Corn plant response rating ([1]; Postemergence, 500 g ai/ha) | Plant response rating, Crabgrass, Large [2, 13] | Plant response rating, Velvetleaf [7, 14] | Plant response rating, Canarygrass [9, 17]
100: Crabgrass, Large plant response rating ([2]; Postemergence, 500 g ai/ha) | Plant response rating, Crabgrass, Large [2, 15] | Plant response rating, Pigweed [3, 13] | Pigweed plant response rating ([3]; Postemergence, 500 g ai/ha) | Foxtail, Giant plant response rating ([4]; Postemergence, 500 g ai/ha) | Barnyardgrass plant response rating ([6]; Postemergence, 500 g ai/ha) | Plant response rating, Velvetleaf [7, 13] | Velvetleaf plant response rating ([7]; Postemergence, 500 g ai/ha) | Plant response rating, Velvetleaf [7, 15] | Morningglory plant response rating ([8]; Postemergence, 500 g ai/ha) | Plant response rating, Chickweed [10, 16] | Plant response rating, Chickweed [10, 17] | Plant response rating, Chickweed [10, 18] | Plant response rating, Windgrass [11, 18]
40: Barley plant response rating (0 to 100 scale) ([12]; 13 to 15 days)
95: Plant response rating, Canarygrass [9, 18]
50: Wheat plant response rating ([5]; Postemergence, 500 g ai/ha) | Plant response rating, Morningglory [8, 13]
60: Plant response rating, Morningglory [8, 15] | Plant response rating, Windgrass [11, 16] | Plant response rating, Barley [12, 17] | Plant response rating, Barley [12, 18]
20: Plant response rating, Corn [1, 15] | Plant response rating, Barnyardgrass [6, 14]
5: Plant response rating, Barley [12, 16]
10: Plant response rating, Corn [1, 13] | Plant response rating, Morningglory [8, 14]

O=C1CCCC(O)=C1C(=O)c1cnc(-c2cccc(F)c2)n(C2CCCCC2)c1=O [Compound 187]
70: Plant response rating, Pigweed [3, 15] | Plant response rating, Velvetleaf [7, 14]
90: Plant response rating, Crabgrass, Large [2, 13] | Plant response rating, Crabgrass, Large [2, 15] | Foxtail, Giant plant response rating ([4]; Postemergence, 500 g ai/ha) | Plant response rating, Foxtail, Giant [4, 15] | Plant response rating, Barnyardgrass [6, 13] | Plant response rating, Barnyardgrass [6, 15] | Plant response rating, Morningglory [8, 15]
30: Plant response rating, Crabgrass, Large [2, 14] | Plant response rating, Foxtail, Giant [4, 14]
55: Plant response rating, Canarygrass [9, 17]
100: Crabgrass, Large plant response rating ([2]; Postemergence, 500 g ai/ha) | Plant response rating, Pigweed [3, 13] | Pigweed plant response rating ([3]; Postemergence, 500 g ai/ha) | Barnyardgrass plant response rating ([6]; Postemergence, 500 g ai/ha) | Plant response rating, Velvetleaf [7, 13] | Velvetleaf plant response rating ([7]; Postemergence, 500 g ai/ha) | Plant response rating, Velvetleaf [7, 15] | Plant response rating, Morningglory [8, 13] | Morningglory plant response rating ([8]; Postemergence, 500 g ai/ha) | Plant response rating, Chickweed [10, 16] | Plant response rating, Chickweed [10, 17] | Plant response rating, Chickweed [10, 18]
20: Plant response rating, Barnyardgrass [6, 14]
65: Plant response rating, Windgrass [11, 17]
10: Plant response rating, Canarygrass [9, 16] | Plant response rating, Windgrass [11, 16]
40: Plant response rating, Barley [12, 17] | Plant response rating, Barley [12, 18]
5: Barley plant response rating (0 to 100 scale) ([12]; 13 to 15 days)
50: Corn plant response rating ([1]; Postemergence, 500 g ai/ha)
0: Plant response rating, Corn [1, 13] | Plant response rating, Corn [1, 14] | Plant response rating, Corn [1, 15] | Plant response rating, Wheat [5, 13] | Wheat plant response rating ([5]; Postemergence, 500 g ai/ha) | Plant response rating, Wheat [5, 14] | Plant response rating, Wheat [5, 15] | Plant response rating, Barley [12, 16]
60: Plant response rating, Pigweed [3, 14] | Plant response rating, Canarygrass [9, 18]
80: Plant response rating, Foxtail, Giant [4, 13] | Plant response rating, Morningglory [8, 14] | Plant response rating, Windgrass [11, 18]
